Laboratory results from article PMC3668304, “Antidiabetic and antioxidant properties of Ficus deltoidea fruit extracts and fractions” (BMC Complementary and Alternative Medicine, 2013).
Values after ≈ are worked out from the molar mass of the structure shown.

Biological target: T1, rat intestinal α-glucosidase (substrate pNPG)
T1 construct: gene Si; crude native enzyme from Sigma rat intestinal acetone powder
Experiment: colorimetric p-nitrophenol release, […] nm
Type: biochemical
Details: substrate 4 mM pNPG (added stock); sodium phosphate buffer; 37°C, 30 min; crude enzyme

- IC50: 57.79 ± 0.66 µg/mL (≈ 89.5 µM)
Compound: C[C@H]1O[C@H](O[C@H]2[C@H](O)[C@@H](O)[C@@H](O[C@H]3[C@H](O)[C@@H](O)C(O)O[C@@H]3CO)O[C@@H]2CO)[C@H](O)[C@@H](O)[C@@H]1N[C@H]1C=C(CO)[C@@H](O)[C@H](O)[C@H]1O (stereo partly shown) [acarbose]
